From BindingDB's records for doi:10.1016/j.chembiol.2017.02.001 (The University of Tokyo, 2017)
Where a SMILES comes first, the peptide text is derived from it.

Legend:
Conditions in all cases: pH 7
Pancreatic alpha-amylase [1] = target: T1, Pancreatic alpha-amylase (Homo sapiens, UniProt P04746); assay: Inhibition Kinetics Assay
T1 sequence (P04746 whole entry): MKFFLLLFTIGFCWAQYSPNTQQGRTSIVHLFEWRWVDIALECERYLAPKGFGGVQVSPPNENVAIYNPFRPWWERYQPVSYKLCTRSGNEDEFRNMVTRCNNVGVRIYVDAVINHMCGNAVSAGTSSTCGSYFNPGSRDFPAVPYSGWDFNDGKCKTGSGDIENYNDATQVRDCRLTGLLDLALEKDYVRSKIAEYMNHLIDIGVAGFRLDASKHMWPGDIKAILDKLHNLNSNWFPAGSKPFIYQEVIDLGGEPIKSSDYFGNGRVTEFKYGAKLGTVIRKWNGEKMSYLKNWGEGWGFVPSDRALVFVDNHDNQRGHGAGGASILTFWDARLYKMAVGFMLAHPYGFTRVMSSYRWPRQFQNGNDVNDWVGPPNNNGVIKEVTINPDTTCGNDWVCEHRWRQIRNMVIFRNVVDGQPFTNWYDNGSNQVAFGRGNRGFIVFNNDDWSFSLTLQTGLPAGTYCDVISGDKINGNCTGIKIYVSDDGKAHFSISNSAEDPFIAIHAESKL
Description: The release of 2-chloro-4-nitrophenol resulting from the HPA-catalyzed hydrolysis of 2-chloro-4-nitrophenyl a-maltotrioside (CNPG3) was monitored at 400 nm. Reactions were run at 30 °C in 50 mM NaPi and 100 mM NaCl (pH 7.0). Reactions were monitored over 5 min to measure the initial reaction rate.

Alpha-amylase 1A = target: T2, Alpha-amylase 1A (Homo sapiens, UniProt P0DUB6); assay: Inhibition Assay (piHA-Dm)
T2 sequence (P0DUB6 whole entry): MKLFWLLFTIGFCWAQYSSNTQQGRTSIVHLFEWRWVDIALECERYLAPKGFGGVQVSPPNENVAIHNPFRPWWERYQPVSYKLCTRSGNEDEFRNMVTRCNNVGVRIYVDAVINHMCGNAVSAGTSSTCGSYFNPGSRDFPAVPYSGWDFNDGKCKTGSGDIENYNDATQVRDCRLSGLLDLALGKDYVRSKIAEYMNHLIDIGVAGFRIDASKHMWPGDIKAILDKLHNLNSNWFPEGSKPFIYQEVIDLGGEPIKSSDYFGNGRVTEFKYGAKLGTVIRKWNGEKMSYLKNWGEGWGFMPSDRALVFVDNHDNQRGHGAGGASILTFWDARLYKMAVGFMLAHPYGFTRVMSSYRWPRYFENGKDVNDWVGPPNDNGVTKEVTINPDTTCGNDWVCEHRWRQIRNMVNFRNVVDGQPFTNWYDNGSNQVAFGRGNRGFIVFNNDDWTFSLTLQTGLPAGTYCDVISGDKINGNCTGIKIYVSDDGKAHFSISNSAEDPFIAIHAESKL
Description: (§1) After kinetic analysis with HPA, piHA-Dm was tested as an inhibitor of ten additional enzymes. The conditions are listed as follows: Agrobacterium faecalis β-glucosidase (2.5 × 10^-4 mg/mL enzyme, 50 mM sodium phosphate pH 7, 4 mM PNP β-gal); Bos taurus β-galactosidase (6.9 × 10^-2 mg/mL enzyme, 50 mM sodium phosphate pH 7, 1 mM PNP β-gal); S. cerevisiae α-glucosidase (5 × 10^-3 mg/mL enzyme, 50 mM sodium phosphate pH 7, 1 mM α-glc); Human maltase-glucoamylase (8.1 × 10^-2 mg/mL enzyme, 50 mM sodium phosphate pH 7, 1 mM α-glc); Mouse maltase-glucoamylase (8.1 × 10^-2 mg/mL enzyme, 50 mM sodium phosphate pH 7, 1 mM α-glc); Butyrivibrio fibrisolvens α-amylase (1.7 × 10^-4 mg/mL enzyme, 50 mM sodium phosphate 100 mM NaCl pH 7, 1 mM CNPG3); Aspergillus oryzae α-amylase (1.9 × 10^-4 mg/mL enzyme, 50 mM sodium phosphate 100 mM NaCl pH 7, 1 mM CNPG3); Porcine pancreatic α-amylase (6.7 × 10^-3 mg/mL enzyme, 50 mM sodium phosphate 100 mM N

Maltase-glucoamylase = Maltase-glucoamylase (Homo sapiens, UniProt O43451); assay: Inhibition Assay (piHA-Dm)
Description: as §1

Pancreatic alpha-amylase [2] = target: T3, Pancreatic alpha-amylase (Sus scrofa, UniProt P00690); assay: Inhibition Assay (piHA-Dm)
T3 sequence (P00690 whole entry): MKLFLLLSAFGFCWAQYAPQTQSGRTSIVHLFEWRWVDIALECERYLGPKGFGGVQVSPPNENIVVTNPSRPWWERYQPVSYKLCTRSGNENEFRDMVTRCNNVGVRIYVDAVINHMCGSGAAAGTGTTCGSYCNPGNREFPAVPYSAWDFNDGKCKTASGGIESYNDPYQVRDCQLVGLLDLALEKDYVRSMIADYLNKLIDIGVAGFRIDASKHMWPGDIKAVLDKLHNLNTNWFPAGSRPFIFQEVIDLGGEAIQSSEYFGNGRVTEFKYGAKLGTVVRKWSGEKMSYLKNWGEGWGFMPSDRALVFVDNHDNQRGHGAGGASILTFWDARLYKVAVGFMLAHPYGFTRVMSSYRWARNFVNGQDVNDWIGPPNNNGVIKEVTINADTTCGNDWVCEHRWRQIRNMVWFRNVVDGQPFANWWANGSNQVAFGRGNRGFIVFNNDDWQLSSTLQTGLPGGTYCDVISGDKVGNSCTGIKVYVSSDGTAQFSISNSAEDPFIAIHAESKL
Description: as §1

[3] = target: Soluble maltase-glucoamylase (Mus musculus, UniProt Q6XK23); assay: Inhibition Assay (piHA-Dm)
Description: as §1

Chain of Soluble maltase-glucoamylase (Q6XK23 whole entry): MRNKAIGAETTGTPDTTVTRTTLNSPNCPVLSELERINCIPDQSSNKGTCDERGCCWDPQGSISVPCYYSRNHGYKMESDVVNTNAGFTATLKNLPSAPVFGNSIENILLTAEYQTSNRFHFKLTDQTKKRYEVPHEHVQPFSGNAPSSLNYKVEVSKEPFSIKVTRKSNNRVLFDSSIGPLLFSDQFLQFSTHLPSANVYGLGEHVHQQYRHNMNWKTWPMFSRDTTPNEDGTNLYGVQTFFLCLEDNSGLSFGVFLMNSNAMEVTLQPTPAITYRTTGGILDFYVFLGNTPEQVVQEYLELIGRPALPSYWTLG
Chain of Maltase-glucoamylase (O43451 whole entry): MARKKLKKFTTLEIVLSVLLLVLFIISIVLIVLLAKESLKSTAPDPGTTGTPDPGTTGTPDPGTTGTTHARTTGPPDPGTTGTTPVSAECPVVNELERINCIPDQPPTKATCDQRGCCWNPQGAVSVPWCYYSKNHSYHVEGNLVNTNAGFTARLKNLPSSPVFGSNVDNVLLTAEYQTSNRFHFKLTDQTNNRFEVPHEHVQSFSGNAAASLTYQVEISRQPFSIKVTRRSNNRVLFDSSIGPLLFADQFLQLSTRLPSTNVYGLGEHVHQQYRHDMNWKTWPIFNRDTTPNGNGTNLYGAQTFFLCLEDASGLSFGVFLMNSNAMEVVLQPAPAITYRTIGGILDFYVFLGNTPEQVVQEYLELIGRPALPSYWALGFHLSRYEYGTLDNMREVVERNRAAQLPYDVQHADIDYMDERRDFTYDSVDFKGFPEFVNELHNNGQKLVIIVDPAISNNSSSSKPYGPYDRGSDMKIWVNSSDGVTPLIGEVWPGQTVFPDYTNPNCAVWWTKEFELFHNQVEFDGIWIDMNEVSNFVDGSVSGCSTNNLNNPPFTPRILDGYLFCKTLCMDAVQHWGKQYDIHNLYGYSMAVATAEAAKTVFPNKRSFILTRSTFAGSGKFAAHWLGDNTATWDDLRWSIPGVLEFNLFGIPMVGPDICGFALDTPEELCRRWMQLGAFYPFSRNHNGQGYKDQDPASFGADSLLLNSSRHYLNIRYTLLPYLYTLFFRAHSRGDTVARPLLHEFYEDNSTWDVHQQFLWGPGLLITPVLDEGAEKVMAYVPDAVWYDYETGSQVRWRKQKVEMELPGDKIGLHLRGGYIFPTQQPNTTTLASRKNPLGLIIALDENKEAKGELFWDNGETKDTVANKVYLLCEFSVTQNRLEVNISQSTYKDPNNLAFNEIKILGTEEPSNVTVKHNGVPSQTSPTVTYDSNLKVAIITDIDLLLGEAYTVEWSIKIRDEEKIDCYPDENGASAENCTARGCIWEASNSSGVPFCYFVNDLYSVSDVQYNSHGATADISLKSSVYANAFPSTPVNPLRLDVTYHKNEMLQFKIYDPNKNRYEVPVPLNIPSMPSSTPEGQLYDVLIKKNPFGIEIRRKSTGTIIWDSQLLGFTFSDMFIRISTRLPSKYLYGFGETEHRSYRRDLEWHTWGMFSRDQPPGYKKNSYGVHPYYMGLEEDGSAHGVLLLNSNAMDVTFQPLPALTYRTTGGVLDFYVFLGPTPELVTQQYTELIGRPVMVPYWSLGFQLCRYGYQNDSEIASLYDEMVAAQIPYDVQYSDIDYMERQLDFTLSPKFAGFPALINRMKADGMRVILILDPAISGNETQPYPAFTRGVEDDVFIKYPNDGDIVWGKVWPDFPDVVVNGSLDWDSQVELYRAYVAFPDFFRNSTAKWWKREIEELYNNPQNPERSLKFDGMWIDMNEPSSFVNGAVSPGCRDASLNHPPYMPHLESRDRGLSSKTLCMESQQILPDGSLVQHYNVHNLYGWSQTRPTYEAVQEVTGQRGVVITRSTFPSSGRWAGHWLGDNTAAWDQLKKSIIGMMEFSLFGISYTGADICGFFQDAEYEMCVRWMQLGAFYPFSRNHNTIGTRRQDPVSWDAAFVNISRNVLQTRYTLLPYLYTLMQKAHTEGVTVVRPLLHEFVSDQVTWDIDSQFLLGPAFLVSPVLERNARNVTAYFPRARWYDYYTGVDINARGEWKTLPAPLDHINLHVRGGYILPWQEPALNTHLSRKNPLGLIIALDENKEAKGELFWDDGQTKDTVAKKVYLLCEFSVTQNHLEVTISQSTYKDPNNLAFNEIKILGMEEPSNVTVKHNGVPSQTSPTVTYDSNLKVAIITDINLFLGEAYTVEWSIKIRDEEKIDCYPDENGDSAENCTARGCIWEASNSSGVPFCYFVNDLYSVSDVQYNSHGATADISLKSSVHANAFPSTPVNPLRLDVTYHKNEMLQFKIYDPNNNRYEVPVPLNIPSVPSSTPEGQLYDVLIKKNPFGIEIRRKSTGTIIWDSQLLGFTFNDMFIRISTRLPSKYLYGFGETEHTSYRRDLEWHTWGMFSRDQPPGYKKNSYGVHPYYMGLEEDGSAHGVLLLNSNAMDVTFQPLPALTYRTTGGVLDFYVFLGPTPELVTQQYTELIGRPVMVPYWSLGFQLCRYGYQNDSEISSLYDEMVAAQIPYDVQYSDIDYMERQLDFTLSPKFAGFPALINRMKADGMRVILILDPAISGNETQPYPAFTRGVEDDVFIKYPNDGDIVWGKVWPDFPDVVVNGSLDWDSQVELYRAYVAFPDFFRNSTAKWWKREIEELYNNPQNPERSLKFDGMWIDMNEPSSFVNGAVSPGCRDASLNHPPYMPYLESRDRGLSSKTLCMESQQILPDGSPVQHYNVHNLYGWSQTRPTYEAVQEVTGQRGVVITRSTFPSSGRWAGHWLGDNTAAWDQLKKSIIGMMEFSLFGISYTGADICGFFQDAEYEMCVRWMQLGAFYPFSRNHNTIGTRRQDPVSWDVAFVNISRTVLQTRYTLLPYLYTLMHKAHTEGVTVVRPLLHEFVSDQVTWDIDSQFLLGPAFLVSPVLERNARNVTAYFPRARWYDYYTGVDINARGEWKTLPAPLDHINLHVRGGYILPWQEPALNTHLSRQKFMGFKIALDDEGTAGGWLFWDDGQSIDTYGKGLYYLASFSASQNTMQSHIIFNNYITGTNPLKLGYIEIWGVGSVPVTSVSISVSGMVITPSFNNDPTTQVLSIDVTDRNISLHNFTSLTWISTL

Structure (SMILES) | Ki (Pancreatic alpha-amylase [1]) | IC50 (Alpha-amylase 1A) | IC50 (Maltase-glucoamylase) | IC50 (Pancreatic alpha-amylase [2]) | IC50 [3]
CC[C@H](C)[C@H](NC(=O)[C@H](CCCNC(=N)N)NC(=O)[C@@H](NC(=O)[C@H](Cc1cnc[nH]1)NC(=O)[C@H](CCCNC(=N)N)NC(=O)[C@H](C)NC(=O)[C@H](Cc1c[nH]c2ccccc12)NC(=O)[C@H](CS)N1SCC(=O)N[C@@H](Cc2ccc(O)cc2)C(=O)N2CCC[C@H]2C(=O)N[C@@H](Cc2ccc(O)cc2)C(=O)N[C@@H](CO)C1=O)C(C)C)C(=O)N[C@@H](CCCNC(=N)N)C(=O)N[C@H](CCC(=O)O)C(=O)N[C@@H](CC(N)=O)C(N)=O [piHA-D1] | 1 nM | – | – | – | –
CC(C)[C@H](NC(=O)[C@H](Cc1c[nH]c2ccccc12)NC(=O)[C@H](CS)N1SCC(=O)N[C@@H](Cc2ccc(O)cc2)C(=O)N2CCC[C@H]2C(=O)N[C@@H](Cc2ccc(O)cc2)C(=O)N[C@@H](CO)C1=O)C(=O)N[C@@H](CCCNC(=N)N)C(=O)N[C@@H](Cc1cnc[nH]1)C(=O)N[C@@H](CO)C(=O)N[C@@H](CC(=O)O)C(=O)N1CCC[C@H]1C(=O)N[C@@H](Cc1cnc[nH]1)C(=O)N[C@@H](CCCCN)C(=O)N[C@@H](Cc1ccccc1)C(N)=O [piHA-D3] | 2.7 nM | – | – | – | –
CC(C)[C@H](NC(=O)[C@H](Cc1c[nH]c2ccccc12)NC(=O)[C@H](CS)N1SCC(=O)N[C@@H](Cc2ccc(O)cc2)C(=O)N2CCC[C@H]2C(=O)N[C@@H](Cc2ccc(O)cc2)C(=O)N[C@@H](CO)C1=O)C(=O)N[C@@H](CCCNC(=N)N)C(=O)N[C@@H](Cc1cnc[nH]1)C(N)=O [piHA-Dm] | 7 nM | 34 nM | – | – | –
CC(C)[C@H](NC(=O)[C@H](Cc1c[nH]c2ccccc12)NC(=O)[C@@H]1CSCC(=O)N[C@@H](Cc2ccc(O)cc2)C(=O)N2CCC[C@H]2C(=O)N[C@@H](Cc2ccc(O)cc2)C(=O)N[C@@H](CO)C(=O)N1)C(=O)N[C@@H](CCCNC(=N)N)C(=O)N[C@@H](Cc1cnc[nH]1)C(N)=O [piHA-Dm] (HELM PEPTIDE1{[O=C(C[*:3])[*:2]].Y.P.Y.S.C.W.V.R.H.[am]}$PEPTIDE1,PEPTIDE1,1:R3-6:R3$$$V2.0) | – | – | 520 nM | 8.5 nM | 990 nM
